Here are results for 1 compound from publication PMC11525196 (Nature, 2024).

Where a chain is given by its changes, count along the chain named. pKd: −log10 of the molar value.

Common to all, as to test: SPR steady-state affinity
Holding throughout (type): binding

Assay [1] concerns the target T1, LYCHOS (GPR155) (Homo sapiens, UniProt Q7Z3F1).
T1 sequence (Q7Z3F1 1-870): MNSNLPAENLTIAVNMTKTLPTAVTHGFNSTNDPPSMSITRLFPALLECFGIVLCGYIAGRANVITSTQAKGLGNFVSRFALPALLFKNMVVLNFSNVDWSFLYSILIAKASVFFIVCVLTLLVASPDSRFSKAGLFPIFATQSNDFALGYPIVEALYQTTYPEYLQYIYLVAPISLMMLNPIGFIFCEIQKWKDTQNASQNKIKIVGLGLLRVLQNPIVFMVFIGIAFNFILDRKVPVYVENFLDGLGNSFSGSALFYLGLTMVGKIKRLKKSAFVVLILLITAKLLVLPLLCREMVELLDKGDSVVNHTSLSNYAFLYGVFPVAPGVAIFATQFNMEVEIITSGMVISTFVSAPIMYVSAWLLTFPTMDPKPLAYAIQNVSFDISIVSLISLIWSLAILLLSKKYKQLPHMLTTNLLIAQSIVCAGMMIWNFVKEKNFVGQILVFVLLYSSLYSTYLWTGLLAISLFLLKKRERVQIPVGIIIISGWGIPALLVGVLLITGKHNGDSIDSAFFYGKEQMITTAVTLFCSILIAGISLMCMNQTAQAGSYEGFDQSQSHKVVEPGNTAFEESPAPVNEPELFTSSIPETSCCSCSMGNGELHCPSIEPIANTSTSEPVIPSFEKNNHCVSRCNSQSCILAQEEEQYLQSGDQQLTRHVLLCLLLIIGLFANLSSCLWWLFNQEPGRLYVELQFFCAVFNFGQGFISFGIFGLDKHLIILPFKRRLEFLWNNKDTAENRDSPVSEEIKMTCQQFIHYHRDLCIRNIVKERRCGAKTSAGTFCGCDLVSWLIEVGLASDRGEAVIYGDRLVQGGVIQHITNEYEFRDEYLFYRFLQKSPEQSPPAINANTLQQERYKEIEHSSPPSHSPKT

Assay [2] concerns the target T2, LYCHOS (GPR155) (Homo sapiens, UniProt Q7Z3F1, A148W).
T2 sequence (Q7Z3F1 1-870 A148W): T1 sequence (Q7Z3F1 1-870) with A148W

For assay [3], the target named is T3, LYCHOS (GPR155) (Homo sapiens, UniProt Q7Z3F1, N145A).
T3 sequence (Q7Z3F1 1-870 N145A): T1 sequence (Q7Z3F1 1-870) with N145A

Assay [4] deals with T4, LYCHOS (GPR155) (Homo sapiens, UniProt Q7Z3F1, L177W).
T4 sequence (Q7Z3F1 1-870 L177W): T1 sequence (Q7Z3F1 1-870) with L177W

Take `O=C(O)Cc1c[nH]c2ccccc12` [IAA, Indole-3-acetic acid]: the pKd (usually the negative decadic logarithm of the Kd, by convention in mol/L) on LYCHOS (GPR155) [1] is 2.79; at LYCHOS (GPR155) [2] it was 2.47; at LYCHOS (GPR155) [3], 2.26; at LYCHOS (GPR155) [4] it was 2.41.
